Source: US5098933A, “Pharmaceutically useful Michael addition products of unsaturated aldehydes and ketones and ascorbic acid” (Theracel Corporation, priority 1990, dated 1992)

What was measured:
[1] = Pharmacokinetics of 3H-KCPBL in mice, plasma levels; type: in vivo; conditions: intravenous, mouse, through 6 hours
Procedure: (§1) The objectives of these tests were to evaluate the pharmacokinetics of radiolabeled KCPBL when administered either perorally or intravenously to mice.
(§2) 3H-KCPBL was prepared from the pure drug substance KCPBL by an exchange procedure using high specific activity tritiated water. The product was purified by reverse phase high performance liquid chromatography and then freeze-dried. Analysis was carried out on ^3 H-KCPBL reconstituted in water. Specific activity was not less than 185 GBg/mmol or 5 Ci/mmol and the molecular weight of the product is 258. HPLC analysis for purity was performed using a Zorbax C8 column (25 cm×4.6) eluting with water: acetonitrile (930:70).
(§3) In the mouse studies, 3H-KCPBL was dissolved in sterile pyrogen-free saline containing […] of non-radiolabeled KCPBL. The final concentration of the test article in an injection volume of 0.1 ml was 66.6 mcCi. One tenth ml was administered intravenously for plasma level and tissue biodistribution studies. Peroral dosages were prepared in a manner consistent with this approach.
Mice were given intravenous doses of 3H-KCPBL to evaluate its biodistribution in this laboratory animal model.

[2] = system: immune system; assay: Tests to establish immunomodulatory properties (overall statement); type: in vivo; conditions: normal antigen stimulated mice
Procedure: The following tests were conducted on various compounds within the scope of this invention to establish their immunodmodulatory properties. […] Conversely, at higher dosage levels, e.g. about 200 to 600 mg/kg body weight they function as immunoinhibitors.
The tests used to establish immunostimulation were:

[3] = system: CD-1 male mice; assay: Parenteral Toxicity--LD50 in mice
Procedure: (§4) The objective of this experiment was to determine the LD50 value for KCPBL when administered intraperitoneally to mice in a standard LD50 test procedure.
(§5) The test animals were CD-1 male mice. The mean weight for these animals on the day of test product administration was 25.5 grams.
(§6) KCPBL (lot 101, consisting of 42% stereoisomer A and 58% stereoisomer B) was dissolved in pyrogen-free normal (0.85%) saline (NaCl).
(§7) Five animals constituted each treatment group.
(§8) Each mouse received 0.5 ml by intraperitoneal (i.p.) injection, using a 3.0 cc syringe fitted with a 23-gauge needle.
(§9) All mice were observed daily for signs, symptoms and survival for three days. Survival statistics were determined after third day.
(§10) Two mice were randomly selected from the control and high dose test group for sacrifice and selection of tissues for histopatholigic examination.
(§11) LD50 was calculated by the method of Spearman & Karber: Basic Exercises in Immunochemistry, A. Nowatny (Ed); Pg 184-85, Springer-Verlag,N.J.

[4] = Parenteral Toxicity--LD50 in mice; conditions: mouse, in vivo, ip
Procedure: as §4, §5, §6, §7, §8, §9, §10, §11

[5] = Tissue biodistribution of 3H-KCPBL in mice; type: in vivo; conditions: for Biodistribution, Bone / Biodistribution, Brain / Biodistribution, Heart / Biodistribution, Kidney / Biodistribution, Large Intestine / Biodistribution, Liver / Biodistribution, Lung / Biodistribution, Muscle / Biodistribution, Small Intestine / Biodistribution, Spleen / Biodistribution, Stomach: 100 mg/kg
Procedure: as §1, §2, §3
Tissue samples were collected and assayed as described above. The tissues evaluated for KCPBL content at four and at 24 hours after test article administration were: heart, lung, kidney, liver spleen, muscle, bond, stomach, small intestine, large intestine and brain.

[6] = system: splenic lymphocytes; assay: Immunomodulation panel: lymphocyte blastogenesis (Con-A, PHA, PWM); type: in vivo, C57BL/6J mice
Procedure: Daily intraperitoneal injections of KCPBL were administered to normal animals and immunological responsiveness to mitogens and specific antigen evaluated.
Doses and schedule--Doses were selected to bracket the range generally known to be immunostimulatory in past experiments, 1, 10, and […] daily for four days.
As an assessment of immunopathology in the above screening test panel, the cellularity of the spleen was evaluated by determination of the total number of splenocytes harvested. Humoral-mediated immunity was measured by enumerating IgM plaque-forming cells to the T-dependent antigen sheep erythrocytes. Cell-mediated immunity was evaluated as described above by determination of the ability of the splenocytes to produce the lymphokine interleukin-2 in response to stimulation by the mitogen concanavalin-A. Another measurement of cell-mediated immunity was the responsiveness of the splenic lymphocytes to the mitogens concanavalin-A (Con-A); phytohemagglutinin (PHA) and pokeweed mitogen (PWM) in the lymphocyte blastogenesis assay. In the latter test, the activation and proliferation of the lymphocytes to the mitogens represents the capability of the cells to sequentially pass from G0 to G1 and the S phse of the cell cycle. The responsiveness of the cells was measured by the uptake of radiolabeled 14C-thymidine.

O=C1CCC(C2(O)C(=O)OC3C(O)COC32O)C1 (stereo not drawn) [KCPBL]
serum level profile [1]: immediate peak serum drug level followed by a steep decline | immunostimulatory activity on T-helper (Th) mediated lymphocyte functions [2]: demonstrated an immunostimulatory activity on T-helper (Th) mediated lymphocyte functions | deaths ([3]; highest dose level, i.p.): Only two animals died | organ histopathology (lungs, liver, kidneys) ([3]; mouse, in vivo): no significant deviations in organ histopathology | overt signs or symptoms of toxic response ([3]; mouse, in vivo, ip): no overt signs or symptoms observed | LD50 at 72 h [4]: ~8570 mg/kg | tissues with highest drug levels ([5]; 4 h, intravenous): liver, gastrointestinal tract, and brain | tissues with highest drug levels ([5]; 4 h, peroral): principally found in the kidneys and the gastrointestinal tract | tissues with highest drug levels ([5]; 24 h, intravenous): muscle and brain demonstrated the highest levels | tissues with highest drug levels ([5]; 24 h, peroral): the highest drug levels were found in muscle and brain | Biodistribution, Bone ([5]; intravenous, 4 hour): 12.77 ± 3.96 mcg/gm | Biodistribution, Brain ([5]; intravenous, 4 hour): 38.60 ± 16.90 mcg/gm | Biodistribution, Heart ([5]; intravenous, 4 hour): 10.45 ± 3.50 mcg/gm | Biodistribution, Kidney ([5]; intravenous, 4 hour): 11.72 ± 1.34 mcg/gm | Biodistribution, Large Intestine ([5]; intravenous, 4 hour): 65.57 ± 14.86 mcg/gm | Biodistribution, Liver ([5]; intravenous, 4 hour): 21.20 ± 4.78 mcg/gm | Biodistribution, Lung ([5]; intravenous, 4 hour): 2.60 ± 2.20 mcg/gm | Biodistribution, Muscle ([5]; intravenous, 4 hour): 31.97 ± 6.09 mcg/gm | Biodistribution, Small Intestine ([5]; intravenous, 4 hour): 58.50 ± 18.68 mcg/gm | Biodistribution, Spleen ([5]; intravenous, 4 hour): 0.95 ± 0.36 mcg/gm | Biodistribution, Stomach ([5]; intravenous, 4 hour): 23.79 ± 5.96 mcg/gm | Biodistribution, Bone ([5]; intravenous, 24 hour): 4.53 ± 0.86 mcg/gm | Biodistribution, Brain ([5]; intravenous, 24 hour): 34.80 ± 20.5 mcg/gm | Biodistribution, Heart ([5]; intravenous, 24 hour): 2.85 ± 1.23 mcg/gm | Biodistribution, Kidney ([5]; intravenous, 24 hour): 5.35 ± 3.66 mcg/gm | Biodistribution, Large Intestine ([5]; intravenous, 24 hour): 13.67 ± 9.3 mcg/gm | Biodistribution, Lung ([5]; intravenous, 24 hour): 1.32 ± 0.46 mcg/gm | Biodistribution, Muscle ([5]; intravenous, 24 hour): 120.90 ± 154.0 mcg/gm | Biodistribution, Small Intestine ([5]; intravenous, 24 hour): 9.62 ± 6.4 mcg/gm | Biodistribution, Spleen ([5]; intravenous, 24 hour): 0.71 ± 0.23 mcg/gm | Biodistribution, Stomach ([5]; intravenous, 24 hour): 10.36 ± 5.8 mcg/gm | Biodistribution, Liver ([5]; intravenous, 24 hour, SD: data not available): 25.7 mcg/gm | Biodistribution, Bone ([5]; peroral, 4 hour): 15.02 ± 13.6 mcg/gm | Biodistribution, Brain ([5]; peroral, 4 hour): 35.22 ± 1.64 mcg/gm | Biodistribution, Heart ([5]; peroral, 4 hour): 13.64 ± 4.98 mcg/gm | Biodistribution, Kidney ([5]; peroral, 4 hour): 63.57 ± 74.0 mcg/gm | Biodistribution, Large Intestine ([5]; peroral, 4 hour): 135.9 ± 32.5 mcg/gm | Biodistribution, Liver ([5]; peroral, 4 hour): 38.03 ± 5.0 mcg/gm | Biodistribution, Lung ([5]; peroral, 4 hour): 2.72 ± 0.38 mcg/gm | Biodistribution, Muscle ([5]; peroral, 4 hour): 40.81 ± 3.37 mcg/gm | Biodistribution, Small Intestine ([5]; peroral, 4 hour): 217.50 ± 267.6 mcg/gm | Biodistribution, Spleen ([5]; peroral, 4 hour): 1.73 ± 0.29 mcg/gm | Biodistribution, Stomach ([5]; peroral, 4 hour): 110.00 ± 118.0 mcg/gm | Biodistribution, Bone ([5]; peroral, 24 hour): 10.30 ± 4.72 mcg/gm | Biodistribution, Brain ([5]; peroral, 24 hour): 47.30 ± 33.0 mcg/gm | Biodistribution, Heart ([5]; peroral, 24 hour): 5.13 ± 3.37 mcg/gm | Biodistribution, Kidney ([5]; peroral, 24 hour): 10.28 ± 5.58 mcg/gm | Biodistribution, Large Intestine ([5]; peroral, 24 hour): 21.42 ± 4.39 mcg/gm | Biodistribution, Liver ([5]; peroral, 24 hour): 11.84 ± 9.58 mcg/gm | Biodistribution, Lung ([5]; peroral, 24 hour): 3.73 ± 3.49 mcg/gm | Biodistribution, Muscle ([5]; peroral, 24 hour): 188.5 ± 124.0 mcg/gm | Biodistribution, Small Intestine ([5]; peroral, 24 hour): 24.45 ± 5.3 mcg/gm | Biodistribution, Spleen ([5]; peroral, 24 hour): 1.71 ± 0.16 mcg/gm | Biodistribution, Stomach ([5]; peroral, 24 hour): 25.72 ± 15.0 mcg/gm | Lymphocyte Blastogenesis, PHA ([6]; 1.0 mg/kg i.p.): 5176 ± 1185 Counts per minute | Lymphocyte Blastogenesis, PWM ([6]; 1.0 mg/kg i.p.): 1977 ± 540 Counts per minute | Lymphocyte Blastogenesis, RPMI ([6]; 1.0 mg/kg i.p.): 95 ± 66 Counts per minute | Lymphocyte Blastogenesis, Con-A ([6]; 10 mg/kg i.p.): 10074 ± 1881 Counts per minute | Lymphocyte Blastogenesis, PHA ([6]; 10 mg/kg i.p.): 5590 ± 864 Counts per minute | Lymphocyte Blastogenesis, RPMI ([6]; 10 mg/kg i.p.): 95 ± 54 Counts per minute | reactivity of splenocytes to PHA ([6]; drug-treated animals): reactivity to PHA was not affected | responsiveness of splenocytes to Con-A ([6]; drug-treated animals): slightly more responsive to Con-A | responsiveness of splenocytes to PWM ([6]; drug-treated animals): significant increases in the responsiveness
